This experiment deals with HCT116 colorectal cells. As to the kind of experiment: Cell viability assay (CellTiter-Glo) in HCT116 cells. Format: cell-based. Particulars: Homo sapiens, HCT-116, 72h, CellTiter-Glo, read-out: HCT116 Assay (IC50). As for the experimental part: HCT116 colorectal cells were used in these experiments. HCT116 cells were obtained from ATCC. The CellTiter-Glo® Luminescent Cell Viability Assay Reagent was obtained from Promega.
Into a 96-well plate, 3000 HCT116 cells were seeded with 100 μL of media (McCoy's 5A Medium supplemented with 10% FBS, 100 units penicillin, and 100 μg streptomycin per mL) 24h before the experiment. For compound treatment, the liquid handling system-Pico machine was used to prepare all the compounds. Each master plate contained serial dilution of 2 compounds, including the control compound E7820. 10 mM compound stock was added to each well of the assay plate to give final concentrations of […], 0.003, 0.002 and 0 μM. Each concentration was tested in triplicate. After 72h, cell viability was determined using CellTiter-Glo Luminescent Cell Viability Assay Reagent following the manufacturer's recommended protocol. Briefly, equilibrate the assay plate and its contents at room temperature for approximately 30 minutes. 100 μL of CellTiter-Glo reagent was added to each well of the assay plate and the contents were mixed for 2 minutes at 500 rpm on an orbital shaker to induce cell lysis (Fisherbrand). The plate was incubated at room temperature for 10 minutes to stabilize luminescent signal. Then the plate was immediately placed in a plate reader (PerkinElmer Multimode Plate Reader Envision2105) and the luminescence signal (0.5 second per well integration time) was determined. IC50 values were calculated using Graphpad Prism 9 software.
Cell viability assays were performed to compare the potency of Compound 1 to Compound 143.

These results are taken from patent US20260116874A1, “HETEROAROMATIC INDOLESULFONAMIDES” (SEED Therapeutics, Inc., priority 2023, published 2026).

What is called IC50 is the concentration needed to halve the response being measured.

On to `Cc1ncc(S(=O)(=O)Nc2ccc(Cl)c3c(Cl)c[nH]c23)s1` [Compound 4, N-(3,4-dichloro-1H-indol-7-yl)-2-methyl-thiazole-5-sulfonamide], for which the IC50 lay in the range of 500 to 1000 nM.
With `Cc1ncc(S(=O)(=O)Nc2ccc(C)c3c(C(F)F)c[nH]c23)s1` [Compound 5, N-(3-(difluoromethyl)-4-methyl-1H-indol-7-yl)-2-methylthiazole-5-sulfonamide] the figure was 500 to 1000 nM; with `Cc1ncc(S(=O)(=O)Nc2ccc(Cl)c3c(C#N)c[nH]c23)s1` [Compound 6, N-(4-chloro-3-cyano-1H-indol-7-yl)-2-methyl-thiazole-5-sulfonamide], less than 500 nM.
The same measure for `COCCc1ncc(S(=O)(=O)Nc2ccc(C)c3c(C#N)c[nH]c23)s1` [Compound 7, N-(3-cyano-4-methyl-1H-indol-7-yl)-2-(2-methoxyethyl)thiazole-5-sulfonamide]: less than 500 nM; for `Cc1ncc(CS(=O)(=O)Nc2ccc(C)c3c(C#N)c[nH]c23)s1` [Compound 8, N-(3-cyano-4-methyl-1H-indol-7-yl)-1-(2-methylthiazol-5-yl)methanesulfonamide]: greater than 1000 nM.
With `Cc1ncc(S(=O)(=O)Nc2cccc3c(Cl)c[nH]c23)s1` [Compound 9, N-(3-chloro-1H-indol-7-yl)-2-methylthiazole-5-sulfonamide] the figure was 500 to 1000 nM; with `Cc1ccc(NS(=O)(=O)c2cnc(C(F)(F)F)s2)c2[nH]cc(C#N)c12` [Compound 10, N-(3-cyano-4-methyl-1H-indol-7-yl)-2-(trifluoromethyl)thiazole-5-sulfonamide], greater than 1000 nM.
Consider `O=S(=O)(Nc1ccc(Cl)c2c(Cl)c[nH]c12)c1cnc(C(F)(F)F)s1` [Compound 11, N-(3,4-dichloro-1H-indol-7-yl)-2-(trifluoromethyl)thiazole-5-sulfonamide], for which the IC50 is greater than 1000 nM.
The same measure for `Cc1ccc(NS(=O)(=O)c2cnc(C3CCN(C)CC3)s2)c2[nH]cc(C#N)c12` [Compound 12, N-(3-cyano-4-methyl-1H-indol-7-yl)-2-(1-methyl-4-piperidyl)thiazole-5-sulfonamide]: greater than 1000 nM; for `O=S(=O)(Nc1cccc2c(Cl)c[nH]c12)c1cnc(C(F)F)s1` [Compound 13, N-(3-chloro-1H-indol-7-yl)-2-(difluoromethyl)thiazole-5-sulfonamide]: 500 to 1000 nM; for `O=S(=O)(Nc1ccc(Cl)c2cc[nH]c12)c1cnc(C2CCCNC2)s1` (centres unmarked) [Compound 15, N-(4-chloro-1H-indol-7-yl)-2-(piperidin-3-yl)thiazole-5-sulfonamide]: 500 to 1000 nM.
With `CN1CCCC(c2ncc(S(=O)(=O)Nc3ccc(Cl)c4cc[nH]c34)s2)C1` (centres unmarked) [Compound 16, N-(4-chloro-1H-indol-7-yl)-2-(1-methylpiperidin-3-yl)thiazole-5-sulfonamide] the figure was greater than 1000 nM; with `Cc1ccc(NS(=O)(=O)c2cnc(N3CCOCC3)s2)c2[nH]cc(C#N)c12` [Compound 17, N-(3-cyano-4-methyl-1H-indol-7-yl)-2-morpholino-thiazole-5-sulfonamide], 500 to 1000 nM.
The same measure for `Cc1ccc(NS(=O)(=O)c2cnc(NC(=O)OC(C)(C)C)s2)c2[nH]cc(C#N)c12` [Compound 18, tert-butyl (5-(N-(3-cyano-4-methyl-1H-indol-7-yl)sulfamoyl)thiazol-2-yl)carbamate]: 500 to 1000 nM; for `Cc1ccc(NS(=O)(=O)c2cnc(N)s2)c2[nH]cc(C#N)c12` [Compound 19, 2-amino-N-(3-cyano-4-methyl-1H-indol-7-yl)thiazole-5-sulfonamide]: 500 to 1000 nM; for `Cc1nc(C)c(S(=O)(=O)Nc2ccc(C)c3c(C#N)c[nH]c23)s1` [Compound 21, N-(3-cyano-4-methyl-1H-indol-7-yl)-2,4-dimethylthiazole-5-sulfonamide]: 500 to 1000 nM.
Take `Cc1ccc(NS(=O)(=O)c2cnc(C(C)N(C)C)s2)c2[nH]cc(C#N)c12` (centres unmarked) [Compound 23, N-(3-cyano-4-methyl-1H-indol-7-yl)-2-(1-(dimethylamino)ethyl)thiazole-5-sulfonamide]: the IC50 was in the range of 500 to 1000 nM.
With `Cc1ccc(NS(=O)(=O)c2cnc(CN3CCC(C#N)C3)s2)c2[nH]cc(C#N)c12` (centres unmarked) [Compound 24, N-(3-cyano-4-methyl-1H-indol-7-yl)-2-((3-cyanopyrrolidin-1-yl)methyl)thiazole-5-sulfonamide] the figure was 500 to 1000 nM.
As for `Cc1ccc(NS(=O)(=O)c2cnc(C3CCN(C(=O)OC(C)(C)C)CC3)s2)c2[nH]cc(C#N)c12` [Compound 25, tert-butyl 4-[5-[(3-cyano-4-methyl-1H-indol-7-yl)sulfamoyl]thiazol-2-yl]piperidine-1-carboxylate], the IC50 is greater than 1000 nM.
With `Cc1ccc(NS(=O)(=O)c2cnc(C3CCNCC3)s2)c2[nH]cc(C#N)c12` [Compound 26, N-(3-cyano-4-methyl-1H-indol-7-yl)-2-(4-piperidyl)thiazole-5-sulfonamide] the figure was greater than 1000 nM; with `Cc1ccc(NS(=O)(=O)c2cnc(C3CCCNC3)s2)c2[nH]cc(C#N)c12` (centres unmarked) [Compound 27, N-(3-cyano-4-methyl-1H-indol-7-yl)-2-(piperidin-3-yl)thiazole-5-sulfonamide], greater than 1000 nM; with `Cc1ccc(NS(=O)(=O)c2cnc(C3CCCN(C)C3)s2)c2[nH]cc(C#N)c12` (centres unmarked) [Compound 28, N-(3-cyano-4-methyl-1H-indol-7-yl)-2-(1-methylpiperidin-3-yl)thiazole-5-sulfonamide], greater than 1000 nM.
With `CC(=O)N1CCC(c2ncc(S(=O)(=O)Nc3ccc(C)c4c(C#N)c[nH]c34)s2)CC1` [Compound 29, 2-(1-acetyl-4-piperidyl)-N-(3-cyano-4-methyl-1H-indol-7-yl)thiazole-5-sulfonamide] the figure was greater than 1000 nM; with `Cc1ncc(S(=O)(=O)N(C)c2ccc(C)c3c(C#N)c[nH]c23)s1` [Compound 30, N-(3-cyano-4-methyl-1H-indol-7-yl)-N,2-dimethyl-thiazole-5-sulfonamide], greater than 1000 nM.
The same measure for `Cc1ccc(NS(=O)(=O)c2cnc(C3(N4CCOCC4)CCC3)s2)c2[nH]cc(C#N)c12` [Compound 32, N-(3-cyano-4-methyl-1H-indol-7-yl)-2-(1-morpholinocyclobutyl)thiazole-5-sulfonamide]: 500 to 1000 nM.
As for `Cc1ncc(S(=N)(=O)Nc2ccc(C)c3c(C#N)c[nH]c23)s1` (centres unmarked) [Compound 33, 4-methyl-7-[[(2-methylthiazol-5-yl)sulfonimidoyl]amino]-1H-indole-3-carbonitrile], the IC50 was greater than 1000 nM.
The same measure for `CC(=O)Nc1ncc(S(=O)(=O)Nc2ccc(C)c3c(C#N)c[nH]c23)s1` [Compound 34, N-(5-(N-(3-cyano-4-methyl-1H-indol-7-yl)sulfamoyl)thiazol-2-yl)acetamide]: 500 to 1000 nM; for `Cc1ccc(NS(=O)(=O)c2cnc(C(C)(C)O)s2)c2[nH]cc(C#N)c12` [Compound 35, N-(3-cyano-4-methyl-1H-indol-7-yl)-2-(1-hydroxy-1-methyl-ethyl)thiazole-5-sulfonamide]: 500 to 1000 nM.
With `Cc1ccc(NS(=O)(=O)c2ccn3cc(C#N)nc3c2)c2[nH]cc(C#N)c12` [Compound 40] the figure was 500 to 1000 nM; with `Cc1ccc(NS(=O)(=O)c2ccc3nccn3c2)c2[nH]cc(C#N)c12` [Compound 41], 500 to 1000 nM; with `Cc1ccc(NS(=O)(=O)c2ccc3nc(C#N)cn3c2)c2[nH]cc(C#N)c12` [Compound 42], greater than 1000 nM.
With `Cc1ccc(NS(=O)(=O)c2cnn3c2CCC3)c2[nH]cc(C#N)c12` [Compound 43] the figure was 500 to 1000 nM.
In the case of `Cc1ccc(NS(=O)(=O)c2cc3n(n2)CCC3)c2[nH]cc(C#N)c12` [Compound 44], the IC50 was 500 to 1000 nM.
The same measure for `Cc1ccc(NS(=O)(=O)c2cnc(OCC(=O)N3CCCC3C#N)s2)c2[nH]cc(C#N)c12` (centres unmarked) [Compound 65]: greater than 1000 nM; for `O=S(=O)(Nc1ccc(Cl)c2c(Cl)c[nH]c12)c1cnc(C2(N3CCOCC3)CCC2)s1` [Compound 75]: 500 to 1000 nM; for `O=S(=O)(Nc1ccc(Cl)c2c(Cl)c[nH]c12)c1cscn1` [Compound 84]: 500 to 1000 nM.
Consider `Cc1ccc(NS(=O)(=O)c2cscn2)c2[nH]cc(C#N)c12` [Compound 85], for which the IC50 was 500 to 1000 nM.
The same measure for `COc1ncc(S(=O)(=O)Nc2ccc(C)c3c(C#N)c[nH]c23)s1` [Compound 90]: less than 500 nM; for `Cc1ccc(NS(=O)(=O)c2cnc(N(C)S(C)(=O)=O)s2)c2[nH]cc(C#N)c12` [Compound 91]: less than 500 nM.
With `[2H]C([2H])([2H])c1ncc(S(=O)(=O)Nc2ccc(C)c3c(Cl)c[nH]c23)s1` [Compound 92] the figure was 500 to 1000 nM; with `C#Cc1c[nH]c2c(NS(=O)(=O)c3cnc(C)s3)ccc(C)c12` [Compound 104], greater than 1000 nM.
